In ChEMBL document CHEMBL1141989, “Amino acid conjugates as kappa opioid receptor agonists” (Bioorg Med Chem Lett, 2005):
“And” between values parts separate entries of the source, which are not always exact repeats. Equal entries are not always repeated.

What was measured:
[1] = target: T1, Kappa-type opioid receptor (Homo sapiens, UniProt P41145); experiment: In vitro binding affinity for human kappa opioid receptor was determined by using [3H]diprenorphine as radioligand
[2] = target: Opioid receptors; mu & kappa (Homo sapiens) (UniProt P41145+P35372); experiment: Selectivity of binding affinity of human kappa opioid receptor over human mu opioid receptor; assay type: protein assay
[3] = target: T1, Kappa-type opioid receptor; experiment: In vitro effective concentration towards human kappa opioid receptor was determined using [35S]-GTP-gamma S as radioligand; Not determined; assay type: functional

Opioid receptors; mu & kappa (Homo sapiens), sequence (P35372 whole entry, looked up): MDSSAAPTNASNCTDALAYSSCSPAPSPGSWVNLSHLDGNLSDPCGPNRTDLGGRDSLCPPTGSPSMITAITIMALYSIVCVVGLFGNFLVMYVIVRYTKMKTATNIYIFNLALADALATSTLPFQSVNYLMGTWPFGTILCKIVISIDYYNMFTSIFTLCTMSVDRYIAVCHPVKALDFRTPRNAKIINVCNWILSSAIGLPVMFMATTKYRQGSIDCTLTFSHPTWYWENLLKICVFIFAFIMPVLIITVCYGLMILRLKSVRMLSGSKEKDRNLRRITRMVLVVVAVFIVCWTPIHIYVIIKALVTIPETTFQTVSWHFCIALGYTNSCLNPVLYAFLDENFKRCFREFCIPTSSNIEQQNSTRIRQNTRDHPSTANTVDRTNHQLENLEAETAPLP
Opioid receptors; mu & kappa (Homo sapiens), sequence (P41145 whole entry, looked up): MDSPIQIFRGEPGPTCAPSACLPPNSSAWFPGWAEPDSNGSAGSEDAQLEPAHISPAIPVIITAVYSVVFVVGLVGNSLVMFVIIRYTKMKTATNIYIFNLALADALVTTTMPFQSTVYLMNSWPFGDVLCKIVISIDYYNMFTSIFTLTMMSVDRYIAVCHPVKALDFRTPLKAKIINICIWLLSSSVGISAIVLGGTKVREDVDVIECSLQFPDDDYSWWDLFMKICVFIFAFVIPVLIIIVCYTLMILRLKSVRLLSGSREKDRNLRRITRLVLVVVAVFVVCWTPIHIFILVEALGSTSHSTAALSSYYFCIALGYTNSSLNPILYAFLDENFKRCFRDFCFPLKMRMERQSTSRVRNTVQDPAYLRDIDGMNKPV
T1 sequence (P41145 whole entry): as the sequence (P41145 whole entry, looked up) above

Which Ki [1] does the source give for CN(C(=O)CNC(=O)OCc1ccccc1)[C@H](CN1CCCC1)c1ccccc1 here?
The Ki was 84 nM.

Which Selectivity [2] does the source give for COC(=O)N[C@H](C(=O)N(C)[C@H](CN1CCCC1)c1ccccc1)c1ccccc1 here?
The Selectivity was greater than 100.

And the Ki [1]?
The Ki was 178 nM.

CN(C(=O)[C@@H](NC(=O)c1ccccc1)c1ccccc1)[C@H](CN1CCCC1)c1ccccc1 was tested. Which Ki [1] did it give?
The Ki was 99 nM.

How did the EC50 [3] turn out when CN(C(=O)CNC(=O)c1ccc(Cl)c(Cl)c1)[C@H](CN1CC[C@@H](O)C1)c1ccccc1 was run?
The EC50 was 0.76 nM.

And the Ki [1]?
The Ki was 0.83 nM.

How did the Selectivity [2] turn out when COc1ccc(C(=O)NCC(=O)N(C)[C@H](CN2CC[C@@H](O)C2)c2ccccc2)cc1 was run?
Its Selectivity is 39 and > 100.

And the Ki [1]?
Its Ki is 48 nM.

With COc1ccccc1C(=O)NCC(=O)N(C)[C@H](CN1CC[C@@H](O)C1)c1ccccc1 as the molecule, how does the EC50 [3] read?
The EC50 was 1.98 nM.

What about the Ki [1] of the same molecule?
The Ki was 2 nM.

CN(C(=O)CNC(=O)Cc1ccccc1)[C@H](CN1CCCC1)c1ccccc1 was tested. Which Selectivity [2] did it give?
The Selectivity was > 100 and 49.

What about the Ki [1] of the same molecule?
Its Ki is 16.3 nM.

Which EC50 [3] does the source give for CN(C(=O)CNC(=O)c1ccc2c(c1)no[n+]2[O-])[C@H](CN1CCCC1)c1ccccc1 here?
The EC50 was 4.37 nM.

And the Ki [1]?
The Ki was 4.6 nM.

Which results are given for CN(C(=O)[C@@H](NC(=O)OCc1ccccc1)c1ccccc1)[C@H](CN1CCCC1)c1ccccc1?
Selectivity [2]: 22 and 27; Ki [1]: 138 nM

How did the Selectivity [2] turn out when CN(C(=O)C(NC=O)c1ccccc1)[C@H](CN1CCCC1)c1ccccc1 (mixture of isomers) was run?
The Selectivity was 146 and > 100.

And the Ki [1]?
The Ki was 258 nM.

CN(C(=O)[C@H](NC(=O)OCc1ccccc1)c1ccccc1)[C@H](CN1CCCC1)c1ccccc1 was tested. Which Ki [1] did it give?
The Ki was 856 nM.

What does the source list for CN(CC(=O)N(C)[C@H](CN1CC[C@@H](O)C1)c1ccccc1)C(=O)c1ccc(Cl)c(Cl)c1?
EC50 [3]: 41.4 nM; Ki [1]: 20 nM

Which results are given for CN(C(=O)[C@H](Cc1ccccc1)NC(=O)OCc1ccccc1)[C@H](CN1CCCC1)c1ccccc1?
Selectivity [2]: 13 and 5; Ki [1]: 150 nM

With CN(C(=O)CNC(=O)c1ccc(Cl)c(Cl)c1)[C@H](CN1CCCC1)c1ccccc1 as the molecule, how does the Selectivity [2] read?
Its Selectivity is 34 and 24.

And the EC50 [3]?
Its EC50 is 2.25 nM.

What about the Ki [1] of the same molecule?
Its Ki is 3.6 nM.

For CN(C(=O)CNC(=O)c1ccccc1)[C@H](CN1CCCC1)c1ccccc1, which Selectivity [2] is on record?
Its Selectivity is 61 and 50.

And the EC50 [3]?
The EC50 was 3.85 nM.

What about the Ki [1] of the same molecule?
Its Ki is 6.7 nM.
